Measured values from patent EP4737449A1 (Changchun Genescience Pharmaceutical Co., Ltd., priority 2023, dated 2025).

Experiments:
[1] = system: NUGC-3 human gastric cancer subcutaneous xenograft; assay: Efficacy in NUGC-3 human gastric cancer subcutaneous xenograft model; format: in vivo, BALB/c Nude mouse; conditions: PO, 19 days
Protocol: NUGC-3 cells were cultured in RPMI-1640 medium containing 10% FBS. NUGC-3 cells in the exponential growth phase were collected, the total amount of cells required was calculated, the cells were re-suspended in PBS to a suitable concentration and then an equal volume of Matrigel was added for subcutaneous tumor seeding in BALB/c Nude mice. The concentration of the cell suspension was 5x10^6/0.1 mL.
0.1 mL (5×10^6 NUGC-3 cells) of cell suspension (PBS : Matrigel = 1:1, V/V) was seeded subcutaneously on the right back of each mouse. When the tumor grew to have an average volume of 128.4 mm^3, group-based drug administration began (vehicle: 0.2% HPC + 0.5% Tween 80), and the average tumor volume of the enrolled animals was 146.1 mm^3.
Table 11 Route, dose and regimen of administration in the subcutaneous xenograft model

[2] = system: BXPC-3 cells; assay: BXPC-3 3D cell proliferation assay (methylcellulose, CTG, 7 days); format: cell-based; conditions: Homo sapiens, 168 h, drug treatment for 7 days
Protocol: 1 g of methylcellulose was weighed and placed into a glass ware and autoclaved. After cooling, 100 mL of the corresponding culture medium was added, the mixture was mixed vigorously, and stirred on a 4°C magnetic stirrer; the mixture was completely dissolved after 48 h and stored at 4°C.
The cells were resuscitated with the corresponding culture medium, and were maintained to grow to the logarithmic growth phase. The cell suspension was collected and centrifuged at 1000 rpm for 5 min. After centrifugation was completed, the supernatant was removed and the cells were re-suspended with an appropriate amount of culture medium. […]
After adding 10 µL of culture medium containing the vehicle to each well, the CTG plate was read. […] The cell plate was placed at room temperature for 10 min to stabilize the luminescent signal, and the luminescent value was read using EnVision. […]
The CTG reagent was thawed and the cell plate was equilibrated to room temperature for 30 min. […] The cell plate was placed at room temperature for 10 min to stabilize the luminescent signal, and the luminescent value was read using EnVision.
Cell viability was calculated using the following formula: (Vsample- VBlank) /(Vvehicle control- VBlank) ×100%. […] The S-shaped dose-survival curve was plotted and IC50 calculated by GraphPad Prism software using non-linear regression model.

[3] = Associated plasma PK in the LU5269 xenograft study; format: in vivo, NOD/SCID mice; conditions: mouse, PO, QD*21, plasma after the last administration
Protocol: At the endpoint of the experiment, plasma samples from groups G2-G6 were collected: plasma was collected from the first 3 mice in each group at 0 h, 1 h, 2 h, and 4 h after the last administration; plasma was collected from the last 3 mice in each group at 0.5 h, 6 h, 9 h, and 24 h after the last administration.
Table 12 Route, dose and regimen of administration in the subcutaneous xenograft model

Row | SMILES | tumor volume inhibition rate TGI ([1]; 50 mpk, BID) | tumor volume inhibition rate TGI ([1]; 100 mpk, BID) | tumor volume inhibition rate TGI ([1]; 150 mpk, BID) | tumor volume inhibition rate TGI ([1]; 150 mpk, QD) | IC50 [2] | AUC(0-t) ([3]; 50 mg/kg, 50mpk) | Cmax ([3]; 50 mg/kg, 50mpk) | half-life ([3]; 50 mg/kg, 50mpk) | AUC(0-t) ([3]; 75 mg/kg, 75mpk) | Cmax ([3]; 75 mg/kg, 75mpk) | AUC(0-t) ([3]; 100 mg/kg, 100 mpk) | Cmax ([3]; 100 mg/kg, 100 mpk) | half-life ([3]; 100 mg/kg, 100 mpk) | AUC(0-t) ([3]; 150 mg/kg, 150mpk) | Cmax ([3]; 150 mg/kg, 150mpk) | half-life ([3]; 150 mg/kg, 150mpk) | tumor volume inhibition rate TGI ([1]; 50 mpk, QD) | tumor volume inhibition rate TGI ([1]; 100 mpk, QD) | AUC(0-t) ([3]; NOD/SCID, 100 mg/kg, 100 mpk) | Cmax ([3]; NOD/SCID, 100 mg/kg, 100 mpk)
1 | CN1CC[C@@H](Nc2cccc3c(CC(F)(F)F)c(C#CCNC(=O)c4cnn(C(C)(C)C)c4N)nn23)[C@@H](F)C1 [Compound 047] | 68% | 93% | 103% | 91% | 180 nM | 11700 ng·h/mL | 1690 ng/mL | 2.2 h | 24400 ng·h/mL | 2590 ng/mL | 39400 ng·h/mL | 4440 ng/mL | 1.9 h | 68000 ng·h/mL | 5550 ng/mL | 2.6 h |  |  |  | 
2 | CNC(=O)c1ccc(NCC#Cc2cc3c(N[C@@H]4CCN(C)C[C@@H]4F)cccc3n2CC(F)(F)F)c(OC)c1 [Control compound, reference compound] |  |  |  |  | 769 nM |  |  |  |  |  |  |  |  |  |  |  | 52% | 77% | 413000 ng·h/mL | 24300 ng/mL
